In BigSolDB 2.1:

CC(C)(c1ccc(O)cc1)c1ccc(O)cc1
solubility (mole fraction)
Conditions	273.15 K	278.15 K	283.15 K	288.15 K	293.15 K	298.15 K	303.15 K	308.15 K	313.15 K
in ethanol	0.209	0.214	0.22	0.226	0.232	0.238	0.245	0.252	0.26
in ethyl acetate	0.234	0.238	0.241	0.243	0.247	0.252	0.256	0.261	0.266
in n-butanol	0.0745	0.0832	0.094	0.106	0.119	0.135	0.147	0.166	0.183
in sec-butanol	0.0343	0.0391	0.0465	0.0564	0.0649	0.0725	0.0846	0.094	0.105
